This is an account of results in publication PMC11678237 (2024).

The structures appear in SMILES notation.

Experiment [1] relates to poly(dA)•2poly(dT) (DNA, polymer) A/T. As to the kind of experiment: UV melting, 260 nm. The following applies: pH 7.0; for binding / ΔTm3→2: 150 mM KCl, 10 mM sodium cacodylate; for ΔTm3→2: per base.
Experiment [2] concerns DNA3 (DNA, triplex) GAAAAAAAAAAAAAGTTTTCTTTTTTTTTTTTCTTTTCTTTTTTTTTTTTTC
As to the kind of experiment: ITC. The following applies: 100 mM NaCl, 10 mM sodium cacodylate, pH 7.0, 15 °C; for Kd: independent model.

Experiment [3] relates to DNA4 (DNA, hairpin) GAAAAAAAAAAAAAGTTTTCTTTTTTTTTTTTTC
The experiment in a line: ITC. The following applies: 100 mM NaCl; 10 mM sodium cacodylate, pH 7.0, 15 °C; 100 μM ligand titrant; heat of dilution only.

Experiment [4] shares this test system. The experiment in a line: CD titration. Conditions: 100 mM NaCl; 10 mM sodium cacodylate, pH 7.0, 15 °C; 0 to 50 μM compound.
For experiment [5], the system named is DNA1/DNA2/TFO1 triplex (DNA, triplex) ATGGCAAAAAAAAGGAGAAGCTGACCACCTGACTA/TAGTCAGGTGGTCAGCTTCTCCTTTTTTTTGCCAT/CTTTCTTTTTTTTTCCTCTTC
The experiment in a line: native PAGE gel shift. The following applies: none added; 90 mM Tris–acetate, pH 5.0; 1 to 100 μM compound; triplex formation promoted.

Experiment [6] concerns poly(dA)•poly(dT) (DNA, polymer) A/T. As to the kind of experiment: UV melting. Conditions: 150 mM KCl; 10 mM sodium cacodylate, pH 7.0; 10 μM compound; Tm2→1 stays near 72 °C.
In experiment [7] the test system is DNA3 (DNA, triplex) GAAAAAAAAAAAAAGTTTTCTTTTTTTTTTTTCTTTTCTTTTTTTTTTTTTC
The experiment in a line: CD titration. Conditions: 100 mM NaCl; 10 mM sodium cacodylate, pH 7.0, 15 °C; 0 to 50 μM compound.

For experiment [8], the system named is poly(dA)•2poly(dT) (DNA, polymer) A/T. As to the kind of experiment: viscosity. Conditions: 150 mM KCl; 10 mM sodium cacodylate, pH 7.0, room temperature; intercalation.
The mark [9] stands for this setting: 10 μM compound, 15 μM base triplet.
Setting [10] is: 10 mM lithium cacodylate, no added salt, 10 μM compound, Tm not shift, no triplex without ligand, duplex Tm 58 °C.

In the case of `CC(C)CCCOc1cccc2oc(-c3ccccc3)cc(=O)c12`, the binding result in experiment [1] (setting [9]) was “no”.
Regarding `CCCN(CCC)CCCOc1cccc2oc(-c3ccccc3)cc(=O)c12`, the ΔTm3→2 in experiment [1] (setting [9]) was found to be 23.8 °C.
For the molecule `CCN(CC)CCCOc1cccc2oc(-c3ccccc3)cc(=O)c12`, the ΔTm3→2 in experiment [1] (setting [9]) came out at 24.4 °C.
Same read-out and setting: to `CN1CCN(CCCOc2cccc3oc(-c4ccccc4)cc(=O)c23)CC1` belongs 25.7 °C; to `NCCCOc1cccc2oc(-c3ccccc3)cc(=O)c12`, 23.2 °C.
With `NC[C@@H]1O[C@H](O[C@H]2[C@@H](O)[C@H](O[C@@H]3[C@@H](O)[C@H](N)C[C@H](N)[C@H]3O[C@H]3O[C@H](CN)[C@@H](O)[C@H](O)[C@H]3N)O[C@@H]2CO)[C@H](N)[C@@H](O)[C@@H]1O`, in experiment [1] (0 to 20 μM compound, no effect at 0.5 μM), the binding entry was “yes”.
In the case of `O=c1cc(-c2ccccc2)oc2cccc(O)c12`, the binding entry was “no” in experiment [2] (100 μM ligand titrant, heat of dilution only) and “weak” in experiment [1] (setting [9]).
As for `O=c1cc(-c2ccccc2)oc2cccc(OCCCCN3CCCCC3)c12`, the Kd in experiment [2] is 3.08 ± 1.26 × 10^-5 M. The Tm3→2 in experiment [1] (setting [10]) turned out to be 40 °C. Besides, the ΔTm3→2 in experiment [1] (setting [9]) amounted to 12.1 °C.
`O=c1cc(-c2ccccc2)oc2cccc(OCCCN3CCCC3)c12`: the ΔTm3→2 in experiment [1] (setting [9]) was determined as 19.4 °C.
As for `O=c1cc(-c2ccccc2)oc2cccc(OCCCN3CCCCC3)c12`, the Kd in experiment [2] is reported as 1.01 ± 0.20 × 10^-5 M. Also, the binding entry in experiment [3] is listed as “no”; in experiment [4] it was “no”; in experiment [5], “yes”; in experiment [6], “no”; in experiment [7], “yes”; in experiment [8] it was “yes”. For the same molecule, the Tm3→1 in experiment [1] (setting [10]) came out at 60.7 °C.
Take `O=c1cc(-c2ccccc2)oc2cccc(OCCCN3CCOCC3)c12`: the ΔTm3→2 in experiment [1] (setting [9]) came out at 26.7 °C.
The same measure, in the same setting: to `O=c1cc(-c2ccccc2)oc2cccc(OCCCO)c12` belongs 5.4 °C.
In the case of `O=c1cc(-c2ccccc2)oc2cccc(OCCN3CCCCC3)c12`, the Kd in experiment [2] is recorded as 2.10 ± 1.12 × 10^-5 M. Besides, the Tm3→2 in experiment [1] (setting [10]) turned out to be 55 °C. Moreover, the ΔTm3→2 in experiment [1] (setting [9]) turned out to be 22.6 °C.
